Results on one molecule are retold here after patent US20100291592A1, “NOVEL MARKER FOR SENSITIVITY AGAINST SULFONAMIDE COMPOUND” (priority 2006, published 2010).

Assay [1] relates to EGFR1. Nature of the assay: EGFR1 expression and phosphorylation level in PC9 subcutaneous transplant model (western blotting). It counts as in vivo, nude mouse. The settings on record: for Phosphorylation level of EGFR1 (% of control) / EGFR1 expression level (% of control): PC9 tumor in nude mouse; for Phosphorylation level of EGFR1 (% of control): anti-EGFR pY1068 western blotting. The method, then:
PC9 was cultured in RPMI1640 (containing 10% FBS) in a 5% carbon dioxide incubator to about 80% confluence. The cells were collected with trypsin-EDTA according to a routine procedure and 5×10^7 cells/mL suspension was prepared with a phosphate buffer. Then, 0.1 mL each of the resulting suspension was subcutaneously transplanted to the side of a nude mouse. Eight days after the transplantation, E7820 was orally administered for 50 mg/kg or 200 mg/kg twice a day for a week. One week after the start of sadministration, tumors were removed to prepare tumor cell lysates with various protease inhibitors and a cell lysis solution containing 10% glycerol and 1% Triton X-100 in ice. For each tumor cell lysate, an equal amount of protein was fractionated by SDS-PAGE and transferred onto a nitrocellulose membrane (Hybond ECL, Amersham Biosciences). Then, western blotting was performed by using an anti-EGFR1 antibody (Santa Cruz Biotechnology) or an anti-EGFR pY1068 antibody (anti-phosphorylated-EGFR1 antibody) (Cell Signaling) and horse radish peroxidase-labeled anti-mouse IgG antibody (secondary antibody) (Cell Signaling) according to a routine procedure.
Detection and quantification of each band were carried out as follows. First, each band was forced to chemically develop a color with Chemiluminescent Substrate (PIERCE), which was then captured as a digital image with Image Master VDS-CL (Amersham Pharmacia Biotech, Tokyo). The digital images were saved as TIF files and each band was numerically converted with Image Master total Lab (version 1.00, Amersham Pharmacia Biotech, Tokyo).
(A western blot detects proteins with antibodies after separation by electrophoresis.)

Assay [2] concerns EGFR1. In words: EGFR1 expression level in cultured A549 (flow cytometry). It counts as cell-based, human. Conditions: for EGFR1 expression level (% of control) A549: two days of culture, flow cytometry. The method, then: (§1) PC9 or A549 was suspended in RPMI1640 (containing 10% FBS) to 1×10^5 cells/ml. Then, 1 ml each of these suspensions was placed into each well of a 6-well plate and cultured in a 5% carbon dioxide incubator at 37° C. On the following day, 1 ml each of E7820 culture dilutions at respective concentrations (0-20 μM) was added to the cells in each well for further culture. After two days of culture, the cells were collected with trypsin-EDTA according to a routine procedure, which were suspended in PBS containing 0.5% BSA. Subsequently, an anti-EGFR1 antibody (BD Biosciences) was added to these suspensions and incubated at 4° C. for 30 minutes. Centrifugation and washing with PBS were carried out according to routine procedures to remove an excessive amount of the antibody. Then, an RPE-labeled anti-mouse IgG antibody was added to these suspensions and incubated at 4° C. for 30 minutes. Centrifugation and washing with PBS were carried out according to routine procedures to remove an excessive amount of the antibody. Finally, the EGFR1 expression level in PC9 and A549 were determined with FACSCalibur (Japan Becton, Dickinson and Company).
For orientation: Flow cytometry measures light scatter and fluorescence of single cells or particles in a stream.

The test system of assay [3] is EGFR1. Nature of the assay: EGFR1 expression level in cultured PC9 (flow cytometry). Type of assay: cell-based, human. Conditions: for EGFR1 expression level (% of control) PC9: two days of culture. The method, then: as §1
Where [4] appears, read: PC9 transplanted tumors, dose-dependent, western blotting.

On to `Cc1ccc(NS(=O)(=O)c2cccc(C#N)c2)c2[nH]cc(C#N)c12` [E7820, N-(3-cyano-4-methyl-1H-indole-7-yl)-3-cyanobenzenesulfonamide], for which the “Effect on EGFR1 expression level (in words)” value is “decreased the EGFR1 expression level” in the assay with EGFR1 [1] (setting [4]); “slightly decreased the EGFR1 expression level” with EGFR1 [2] (cultured A549, flow cytometry); “greatly decreased the EGFR1 expression level” in the assay with EGFR1 [3] (cultured PC9, dose-dependent). Also, the “Effect on phosphorylation of EGFR1 (in words)” value in the assay on EGFR1 [1] (setting [4]) is “inhibited phosphorylation of EGFR1”. Further, the “Phosphorylation level of EGFR1 (% of control)” value in the assay on EGFR1 [1] (50 mg/kg orally twice a day for a week) is on record as 59 % of control; in the assay on EGFR1 [1] (200 mg/kg orally twice a day for a week), 51 % of control. Further, the “EGFR1 expression level (% of control)” value with EGFR1 [1] (50 mg/kg orally twice a day for a week, western blotting) was 63 % of control; in the assay with EGFR1 [1] (200 mg/kg orally twice a day for a week, western blotting), 40 % of control. Besides, the “EGFR1 expression level (% of control) A549” value is listed as 93 % of control in the assay on EGFR1 [2] (A549, E7820 0.01 μM); 97 % of control in the assay on EGFR1 [2] (A549, E7820 0.03 μM); 95 % of control in the assay with EGFR1 [2] (A549, E7820 0.1 μM); 91 % of control in the assay on EGFR1 [2] (A549, E7820 0.3 μM); 80 % of control in the assay on EGFR1 [2] (A549, E7820 1 μM); 64 % of control in the assay with EGFR1 [2] (A549, E7820 3 μM). In addition, the “EGFR1 expression level (% of control) A549” value with EGFR1 [2] (A549, E7820 10 μM) is 73 % of control. Also, the “EGFR1 expression level (% of control) PC9” value with EGFR1 [3] (PC9, E7820 0.01 μM) is given as 95 % of control; with EGFR1 [3] (PC9, E7820 0.03 μM), 91 % of control; in the assay on EGFR1 [3] (PC9, E7820 0.1 μM) it was 80 % of control; with EGFR1 [3] (PC9, E7820 0.3 μM) it was 65 % of control; in the assay with EGFR1 [3] (PC9, E7820 1 μM), 49 % of control; with EGFR1 [3] (PC9, E7820 3 μM), 44 % of control. Also, in the assay on EGFR1 [3] (PC9, E7820 10 μM), the “EGFR1 expression level (% of control) PC9” value is given as 37 % of control.
